Measured values: PubChem BioAssay (NCI)
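Method: 48-hour compound exposure of cells in 96-well plates, five concentrations, linear interpolation of endpoints. TGI marks complete inhibition of growth.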

System: DU-145 prostate
Assay: NCI tumour cell line growth inhibition, 48 h

Row | SMILES | TGI
1 | C[C@@H]1OC(=O)C[C@H]2CC(=O)N(CCC3CN(C(=O)c4ccccc4)c4ccccc43)C[C@@H]21 (stereo partly drawn) | > 100 µM

System: A498 renal
Assay: NCI tumour cell line growth inhibition, 48 h

Row | SMILES | TGI
2 | COc1ccc(-n2cnc3c(N)nc(N)nc32)cc1 | > 100 µM
3 | COc1ccc2c(c1)/C(=C\c1c(-c3ccccc3)nc3n1CCS3)C(=O)N2 | 21.3 µM
4 | COc1ccc(N2C(=O)C3c4[nH]c5cccc(Cl)c5c4C4CCC(C(C)(C)C)CC4C3C2=O)cc1 (stereo not drawn) | > 100 µM
5 | O=c1cc(N2CCOCC2)[nH]c(=O)n1-c1cccc(Cl)c1 | > 100 µM
6 | C[C@@H]1OC(=O)C[C@H]2CC(=O)N(CCC3CN(C(=O)c4ccccc4)c4ccccc43)C[C@@H]21 (stereo partly drawn) | > 100 µM

System: SK-MEL-2 melanoma
Assay: NCI tumour cell line growth inhibition, 48 h

Row | SMILES | TGI
7 | COc1ccc(-n2cnc3c(N)nc(N)nc32)cc1 | > 100 µM
8 | COc1ccc2c(c1)/C(=C\c1c(-c3ccccc3)nc3n1CCS3)C(=O)N2 | 20.2 µM
9 | COc1ccc(N2C(=O)C3c4[nH]c5cccc(Cl)c5c4C4CCC(C(C)(C)C)CC4C3C2=O)cc1 (stereo not drawn) | > 100 µM
10 | O=c1cc(N2CCOCC2)[nH]c(=O)n1-c1cccc(Cl)c1 | > 100 µM
11 | C[C@@H]1OC(=O)C[C@H]2CC(=O)N(CCC3CN(C(=O)c4ccccc4)c4ccccc43)C[C@@H]21 (stereo partly drawn) | > 100 µM

System: LOX IMVI melanoma
Assay: NCI tumour cell line growth inhibition, 48 h

Row | SMILES | TGI
12 | COc1ccc2c(c1)/C(=C\c1c(-c3ccccc3)nc3n1CCS3)C(=O)N2 | 20.6 µM
13 | COc1ccc(N2C(=O)C3c4[nH]c5cccc(Cl)c5c4C4CCC(C(C)(C)C)CC4C3C2=O)cc1 (stereo not drawn) | > 100 µM
14 | O=c1cc(N2CCOCC2)[nH]c(=O)n1-c1cccc(Cl)c1 | > 100 µM

System: MOLT-4 leukemia
Assay: NCI tumour cell line growth inhibition, 48 h

Row | SMILES | TGI
15 | COc1ccc(-n2cnc3c(N)nc(N)nc32)cc1 | > 100 µM
16 | COc1ccc2c(c1)/C(=C\c1c(-c3ccccc3)nc3n1CCS3)C(=O)N2 | 16.9 µM
17 | COc1ccc(N2C(=O)C3c4[nH]c5cccc(Cl)c5c4C4CCC(C(C)(C)C)CC4C3C2=O)cc1 (stereo not drawn) | > 100 µM
18 | O=c1cc(N2CCOCC2)[nH]c(=O)n1-c1cccc(Cl)c1 | > 100 µM
19 | C[C@@H]1OC(=O)C[C@H]2CC(=O)N(CCC3CN(C(=O)c4ccccc4)c4ccccc43)C[C@@H]21 (stereo partly drawn) | > 100 µM

System: K-562 leukemia
Assay: NCI tumour cell line growth inhibition, 48 h

Row | SMILES | TGI
20 | COc1ccc2c(c1)/C(=C\c1c(-c3ccccc3)nc3n1CCS3)C(=O)N2 | 17 µM
21 | COc1ccc(N2C(=O)C3c4[nH]c5cccc(Cl)c5c4C4CCC(C(C)(C)C)CC4C3C2=O)cc1 (stereo not drawn) | > 100 µM
22 | O=c1cc(N2CCOCC2)[nH]c(=O)n1-c1cccc(Cl)c1 | > 100 µM
23 | C[C@@H]1OC(=O)C[C@H]2CC(=O)N(CCC3CN(C(=O)c4ccccc4)c4ccccc43)C[C@@H]21 (stereo partly drawn) | > 100 µM

System: T-47D breast
Assay: NCI tumour cell line growth inhibition, 48 h

Row | SMILES | TGI
24 | COc1ccc(-n2cnc3c(N)nc(N)nc32)cc1 | > 100 µM
25 | COc1ccc2c(c1)/C(=C\c1c(-c3ccccc3)nc3n1CCS3)C(=O)N2 | 61.6 µM
26 | COc1ccc(N2C(=O)C3c4[nH]c5cccc(Cl)c5c4C4CCC(C(C)(C)C)CC4C3C2=O)cc1 (stereo not drawn) | > 100 µM
27 | O=c1cc(N2CCOCC2)[nH]c(=O)n1-c1cccc(Cl)c1 | > 100 µM
28 | C[C@@H]1OC(=O)C[C@H]2CC(=O)N(CCC3CN(C(=O)c4ccccc4)c4ccccc43)C[C@@H]21 (stereo partly drawn) | > 100 µM

System: HOP-92 NSCLC
Assay: NCI tumour cell line growth inhibition, 48 h

Row | SMILES | TGI
29 | COc1ccc(-n2cnc3c(N)nc(N)nc32)cc1 | > 100 µM
30 | COc1ccc2c(c1)/C(=C\c1c(-c3ccccc3)nc3n1CCS3)C(=O)N2 | 30.8 µM
31 | COc1ccc(N2C(=O)C3c4[nH]c5cccc(Cl)c5c4C4CCC(C(C)(C)C)CC4C3C2=O)cc1 (stereo not drawn) | > 100 µM
32 | O=c1cc(N2CCOCC2)[nH]c(=O)n1-c1cccc(Cl)c1 | > 100 µM
33 | C[C@@H]1OC(=O)C[C@H]2CC(=O)N(CCC3CN(C(=O)c4ccccc4)c4ccccc43)C[C@@H]21 (stereo partly drawn) | > 100 µM

System: TK-10 renal
Assay: NCI tumour cell line growth inhibition, 48 h

Row | SMILES | TGI
34 | COc1ccc(-n2cnc3c(N)nc(N)nc32)cc1 | > 100 µM
35 | COc1ccc2c(c1)/C(=C\c1c(-c3ccccc3)nc3n1CCS3)C(=O)N2 | 27.8 µM
36 | COc1ccc(N2C(=O)C3c4[nH]c5cccc(Cl)c5c4C4CCC(C(C)(C)C)CC4C3C2=O)cc1 (stereo not drawn) | > 100 µM
37 | O=c1cc(N2CCOCC2)[nH]c(=O)n1-c1cccc(Cl)c1 | > 100 µM
38 | C[C@@H]1OC(=O)C[C@H]2CC(=O)N(CCC3CN(C(=O)c4ccccc4)c4ccccc43)C[C@@H]21 (stereo partly drawn) | > 100 µM

System: SNB-19 CNS
Assay: NCI tumour cell line growth inhibition, 48 h

Row | SMILES | TGI
39 | COc1ccc(-n2cnc3c(N)nc(N)nc32)cc1 | > 100 µM
40 | COc1ccc2c(c1)/C(=C\c1c(-c3ccccc3)nc3n1CCS3)C(=O)N2 | > 100 µM
41 | COc1ccc(N2C(=O)C3c4[nH]c5cccc(Cl)c5c4C4CCC(C(C)(C)C)CC4C3C2=O)cc1 (stereo not drawn) | > 100 µM
42 | O=c1cc(N2CCOCC2)[nH]c(=O)n1-c1cccc(Cl)c1 | > 100 µM
43 | C[C@@H]1OC(=O)C[C@H]2CC(=O)N(CCC3CN(C(=O)c4ccccc4)c4ccccc43)C[C@@H]21 (stereo partly drawn) | > 100 µM

System: MDA-MB-231 breast
Assay: NCI tumour cell line growth inhibition, 48 h

Row | SMILES | TGI
44 | COc1ccc(-n2cnc3c(N)nc(N)nc32)cc1 | > 100 µM
45 | COc1ccc2c(c1)/C(=C\c1c(-c3ccccc3)nc3n1CCS3)C(=O)N2 | 17.9 µM
46 | COc1ccc(N2C(=O)C3c4[nH]c5cccc(Cl)c5c4C4CCC(C(C)(C)C)CC4C3C2=O)cc1 (stereo not drawn) | > 100 µM
47 | O=c1cc(N2CCOCC2)[nH]c(=O)n1-c1cccc(Cl)c1 | > 100 µM
48 | C[C@@H]1OC(=O)C[C@H]2CC(=O)N(CCC3CN(C(=O)c4ccccc4)c4ccccc43)C[C@@H]21 (stereo partly drawn) | > 100 µM

System: HS 578T breast
Assay: NCI tumour cell line growth inhibition, 48 h

Row | SMILES | TGI
49 | COc1ccc(-n2cnc3c(N)nc(N)nc32)cc1 | 87 µM
50 | COc1ccc2c(c1)/C(=C\c1c(-c3ccccc3)nc3n1CCS3)C(=O)N2 | 38.7 µM
51 | COc1ccc(N2C(=O)C3c4[nH]c5cccc(Cl)c5c4C4CCC(C(C)(C)C)CC4C3C2=O)cc1 (stereo not drawn) | 90.7 µM
52 | O=c1cc(N2CCOCC2)[nH]c(=O)n1-c1cccc(Cl)c1 | > 100 µM
53 | C[C@@H]1OC(=O)C[C@H]2CC(=O)N(CCC3CN(C(=O)c4ccccc4)c4ccccc43)C[C@@H]21 (stereo partly drawn) | > 100 µM

System: 786-0 renal
Assay: NCI tumour cell line growth inhibition, 48 h

Row | SMILES | TGI
54 | COc1ccc(-n2cnc3c(N)nc(N)nc32)cc1 | > 100 µM
55 | COc1ccc2c(c1)/C(=C\c1c(-c3ccccc3)nc3n1CCS3)C(=O)N2 | 28.6 µM
56 | COc1ccc(N2C(=O)C3c4[nH]c5cccc(Cl)c5c4C4CCC(C(C)(C)C)CC4C3C2=O)cc1 (stereo not drawn) | > 100 µM
57 | O=c1cc(N2CCOCC2)[nH]c(=O)n1-c1cccc(Cl)c1 | > 100 µM
58 | C[C@@H]1OC(=O)C[C@H]2CC(=O)N(CCC3CN(C(=O)c4ccccc4)c4ccccc43)C[C@@H]21 (stereo partly drawn) | > 100 µM

System: CCRF-CEM leukemia
Assay: NCI tumour cell line growth inhibition, 48 h

Row | SMILES | TGI
59 | COc1ccc(-n2cnc3c(N)nc(N)nc32)cc1 | > 100 µM
60 | COc1ccc2c(c1)/C(=C\c1c(-c3ccccc3)nc3n1CCS3)C(=O)N2 | 26.9 µM
61 | O=c1cc(N2CCOCC2)[nH]c(=O)n1-c1cccc(Cl)c1 | > 100 µM

System: UACC-62 melanoma
Assay: NCI tumour cell line growth inhibition, 48 h

Row | SMILES | TGI
62 | COc1ccc(-n2cnc3c(N)nc(N)nc32)cc1 | > 100 µM
63 | COc1ccc2c(c1)/C(=C\c1c(-c3ccccc3)nc3n1CCS3)C(=O)N2 | 18.2 µM
64 | COc1ccc(N2C(=O)C3c4[nH]c5cccc(Cl)c5c4C4CCC(C(C)(C)C)CC4C3C2=O)cc1 (stereo not drawn) | > 100 µM
65 | O=c1cc(N2CCOCC2)[nH]c(=O)n1-c1cccc(Cl)c1 | > 100 µM
66 | C[C@@H]1OC(=O)C[C@H]2CC(=O)N(CCC3CN(C(=O)c4ccccc4)c4ccccc43)C[C@@H]21 (stereo partly drawn) | > 100 µM

System: OVCAR-4 ovarian
Assay: NCI tumour cell line growth inhibition, 48 h

Row | SMILES | TGI
67 | COc1ccc(-n2cnc3c(N)nc(N)nc32)cc1 | > 100 µM
68 | COc1ccc(N2C(=O)C3c4[nH]c5cccc(Cl)c5c4C4CCC(C(C)(C)C)CC4C3C2=O)cc1 (stereo not drawn) | > 100 µM
